Laboratory results taken from ChEMBL document CHEMBL1201862, “PubChem BioAssay data set” (2004).
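All cell lines were grown in 96-well plates and treated with compound for 48 hours. GI50 marks 50% less growth.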 The source made the active and inactive calls. No stated cut-off is given here; in the data, active = GI50 up to about 1.1 µM and inactive = higher.

Tests used:
Assay in all cases: NCI-60 cell line screen, 48 h
T47D = test system: T47D
HCC 2998 = test system: HCC 2998
LOX IMVI = test system: LOX IMVI
CCRF-CEM = test system: CCRF-CEM
KM12 = test system: KM12
RXF 393 = test system: RXF 393
TK-10 = test system: TK-10
SNB-19 = test system: SNB-19
EKVX = test system: EKVX
OVCAR-5 = test system: OVCAR-5
NCI-H226 = test system: NCI-H226
DU-145 = test system: DU-145
HOP-62 = test system: HOP-62
M14 = test system: M14
SK-MEL-2 = test system: SK-MEL-2
OVCAR-4 = test system: OVCAR-4
A498 = test system: A498
NCI-H522 = test system: NCI-H522
NCI-H23 = test system: NCI-H23
786-0 = test system: 786-0

Measured: GI50

COc1ccc(S(=O)(=O)N/N=C/C(=O)O)cc1
inactive: T47D 695 µM | HCC 2998 607 µM | LOX IMVI 248 µM | CCRF-CEM 176 µM | KM12 557 µM | RXF 393 410 µM | TK-10 832 µM | SNB-19 706 µM | EKVX 1160 µM | OVCAR-5 873 µM | NCI-H226 624 µM | DU-145 327 µM | HOP-62 678 µM | M14 684 µM | SK-MEL-2 428 µM | OVCAR-4 524 µM | A498 495 µM | NCI-H522 275 µM | NCI-H23 369 µM | 786-0 397 µM

O=P1(O)c2ccccc2Nc2cc(C(F)(F)F)ccc21
inactive: T47D > 100 µM | HCC 2998 > 100 µM | LOX IMVI > 100 µM | CCRF-CEM > 100 µM | KM12 > 100 µM | RXF 393 > 100 µM | TK-10 > 100 µM | SNB-19 > 100 µM | EKVX > 100 µM | OVCAR-5 > 100 µM | NCI-H226 > 100 µM | DU-145 > 100 µM | HOP-62 > 100 µM | M14 > 100 µM | SK-MEL-2 > 100 µM | OVCAR-4 > 100 µM | A498 > 100 µM | NCI-H522 > 100 µM | NCI-H23 > 100 µM | 786-0 > 100 µM

O=S(=O)(N=S(c1ccc(Cl)cc1)c1ccc(Cl)cc1)c1ccccc1
inactive: T47D 47.5 µM | HCC 2998 > 100 µM | LOX IMVI > 100 µM | CCRF-CEM 59.4 µM | KM12 96.6 µM | RXF 393 65.3 µM | TK-10 > 100 µM | SNB-19 > 100 µM | EKVX > 100 µM | OVCAR-5 > 100 µM | NCI-H226 > 100 µM | DU-145 > 100 µM | HOP-62 > 100 µM | M14 > 100 µM | SK-MEL-2 > 100 µM | OVCAR-4 58.5 µM | A498 19.7 µM | NCI-H522 70.3 µM | NCI-H23 63.4 µM | 786-0 > 100 µM

O=C1c2c(ccc3c2CCCC3)CC12Cc1ccccc1C2
inactive: T47D 17.9 µM | HCC 2998 19.1 µM | LOX IMVI 10.1 µM | CCRF-CEM 10.8 µM | KM12 16.4 µM | RXF 393 11 µM | TK-10 28 µM | SNB-19 58.6 µM | EKVX 20 µM | OVCAR-5 21.8 µM | NCI-H226 9.53 µM | DU-145 22.3 µM | HOP-62 16.8 µM | M14 21 µM | SK-MEL-2 17.4 µM | OVCAR-4 40.8 µM | A498 11.1 µM | NCI-H522 12.8 µM | NCI-H23 10.3 µM | 786-0 14.2 µM

CCN(CC)c1nc(=O)c(C(=O)C(C)(C)C)c(C(C)(C)C)o1
inactive: T47D > 100 µM | HCC 2998 > 100 µM | LOX IMVI > 100 µM | CCRF-CEM > 100 µM | KM12 > 100 µM | RXF 393 > 100 µM | TK-10 > 100 µM | SNB-19 98.4 µM | EKVX > 100 µM | OVCAR-5 > 100 µM | NCI-H226 > 100 µM | DU-145 > 100 µM | HOP-62 > 100 µM | M14 > 100 µM | SK-MEL-2 > 100 µM | OVCAR-4 > 100 µM | A498 > 100 µM | NCI-H522 > 100 µM | NCI-H23 > 100 µM | 786-0 > 100 µM

Nc1c2c(nc3ccccc13)-c1ccccc1NCCC2
inactive: T47D 26.1 µM | HCC 2998 13.9 µM | LOX IMVI 16.8 µM | CCRF-CEM 26.4 µM | KM12 35.2 µM | RXF 393 16.1 µM | TK-10 19 µM | SNB-19 53 µM | EKVX 38.3 µM | OVCAR-5 35.6 µM | NCI-H226 25.4 µM | DU-145 59.7 µM | HOP-62 16.6 µM | M14 17.4 µM | SK-MEL-2 18 µM | OVCAR-4 47.3 µM | A498 16.6 µM | NCI-H522 26.9 µM | NCI-H23 47.3 µM | 786-0 16.7 µM
